Data from PubChem BioAssay AID2060891 (Molecular Pharmacology Branch, DTP, NCI, 2025).

Test system: K98450-129-R-PDC complex spheroid growth, percent test/control
Assay: Anticancer human tumor K98450-129-R-PDC patient-derived colon adenocarcinoma cell line growth inhibition [RAS]
Conditions: for IC50: curve of first compound; for viability, T/C: stronger effect = lower value
Summary of the method: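 Multi-cell-type spheroids: tumor cells plus HUVEC endothelial cells and mesenchymal stem cells. RAS-pathway inhibitors were combined with targeted agents, each dosed in half-log steps down from clinical Cmax, or from 10 microM when Cmax was unknown.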

[1] = second compound 0.000949 µM, first compound 0.0316 µM
[2] = second compound 0.000949 µM, first compound 0.1 µM
[3] = second compound 0.000949 µM, first compound 0.316 µM
[4] = second compound 0.000949 µM, first compound 1 µM
[5] = second compound 0.003 µM, first compound 0.0316 µM
[6] = second compound 0.003 µM, first compound 0.1 µM
[7] = second compound 0.003 µM, first compound 0.316 µM
[8] = second compound 0.003 µM, first compound 1 µM
[9] = second compound 0.00949 µM, first compound 0.0316 µM
[10] = second compound 0.00949 µM, first compound 0.1 µM
[11] = second compound 0.00949 µM, first compound 0.316 µM
[12] = second compound 0.00949 µM, first compound 1 µM
[13] = second compound 0.03 µM, first compound 0.0316 µM
[14] = second compound 0.03 µM, first compound 0.1 µM
[15] = second compound 0.03 µM, first compound 0.316 µM
[16] = second compound 0.03 µM, first compound 1 µM
[17] = second compound 0.0949 µM, first compound 0.0316 µM
[18] = second compound 0.0949 µM, first compound 0.1 µM
[19] = second compound 0.0949 µM, first compound 0.316 µM
[20] = second compound 0.0949 µM, first compound 1 µM
[21] = second compound 0.3 µM, first compound 0.0316 µM
[22] = second compound 0.3 µM, first compound 0.1 µM
[23] = second compound 0.3 µM, first compound 0.316 µM
[24] = second compound 0.3 µM, first compound 1 µM
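Further: spheroids exposed to agents for seven days before the viability readout.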
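Wherever viability, T/C is given: luminescence used as a proxy for viable cell amount.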

In the case of `CC1(O)CCCC1n1c(=O)c(C(F)F)cc2cnc(NC3CCN(S(C)(=O)=O)CC3)nc21` (centres undefined) + CCn1c(-c2cc(N3CCN(C)CC3)cnc2C(C)OC)c2c3cc(ccc31)-c1csc(n1)CC(NC(=O)C1CC1C)C(=O)N1CCCC(N1)C(=O)OCC(C)(C)C2, the IC50 (second compound 0.000949 µM) is reported as > 10000 nM, the IC50 (second compound 0.003 µM) is reported as > 10000 nM and the IC50 (second compound 0.00949 µM) is reported as 2340 nM. For the same compound, the IC50 (second compound 0.03 µM) was < 31.6 nM, the IC50 (second compound 0.0949 µM) was < 31.6 nM and the IC50 (second compound 0.3 µM) was < 31.6 nM. For the same compound, the viability, T/C [1] was 97.3%, the viability, T/C [2] was 94.3% and the viability, T/C [3] was 95.8%. For the same compound, the viability, T/C [4] was 72%, the viability, T/C (second compound 0.000949 µM, first compound 3.16 µM) was 72.1% and the viability, T/C (second compound 0.000949 µM, first compound 10 µM) was 78.4%. The viability, T/C [5] was 81.7%, the viability, T/C [6] was 78.6% and the viability, T/C [7] was 60.3%. It also gave a viability, T/C [8] of 74.2%, a viability, T/C (second compound 0.003 µM, first compound 3.16 µM) of 68.3% and a viability, T/C (second compound 0.003 µM, first compound 10 µM) of 71%. The viability, T/C [9] was 77.1%, the viability, T/C [10] was 69.8% and the viability, T/C [11] was 60.5%. The viability, T/C [12] was 50.9%, the viability, T/C (second compound 0.00949 µM, first compound 3.16 µM) was 50.5% and the viability, T/C (second compound 0.00949 µM, first compound 10 µM) was 47.8%. It also gave a viability, T/C [13] of 47.9%, a viability, T/C [14] of 46.9% and a viability, T/C [15] of 48.4%. It also gave a viability, T/C [16] of 36.6%, a viability, T/C (second compound 0.03 µM, first compound 3.16 µM) of 35.4% and a viability, T/C (second compound 0.03 µM, first compound 10 µM) of 28.2%. For the same compound, the viability, T/C [17] was 22.6%, the viability, T/C [18] was 22.1% and the viability, T/C [19] was 18.2%. It also gave a viability, T/C [20] of 17.9%, a viability, T/C (second compound 0.0949 µM, first compound 3.16 µM) of 21% and a viability, T/C (second compound 0.0949 µM, first compound 10 µM) of 17.7%. For the same compound, the viability, T/C [21] was 11.4%, the viability, T/C [22] was 11.9% and the viability, T/C [23] was 12.3%. It also gave a viability, T/C [24] of 13.8%, a viability, T/C (second compound 0.3 µM, first compound 3.16 µM) of 12.7% and a viability, T/C (second compound 0.3 µM, first compound 10 µM) of 11.8%.
In the case of `CCN1CCN(Cc2ccc(Nc3ncc(F)c(-c4cc(F)c5nc(C)n(C(C)C)c5c4)n3)nc2)CC1` + CCn1c(-c2cc(N3CCN(C)CC3)cnc2C(C)OC)c2c3cc(ccc31)-c1csc(n1)CC(NC(=O)C1CC1C)C(=O)N1CCCC(N1)C(=O)OCC(C)(C)C2, the IC50 (second compound 0.000949 µM) is reported as > 1000 nM, the IC50 (second compound 0.003 µM) is reported as 723 nM and the IC50 (second compound 0.00949 µM) is reported as 73.2 nM. For the same compound, the IC50 (second compound 0.03 µM) was 23.7 nM, the IC50 (second compound 0.0949 µM) was < 3.16 nM and the IC50 (second compound 0.3 µM) was < 3.16 nM. The viability, T/C (second compound 0.000949 µM, first compound 0.00316 µM) was 75.8%, the viability, T/C (second compound 0.000949 µM, first compound 0.01 µM) was 83% and the viability, T/C [1] was 90.9%. It also gave a viability, T/C [2] of 80.8%, a viability, T/C [3] of 65.6% and a viability, T/C [4] of 65.6%. For the same compound, the viability, T/C (second compound 0.003 µM, first compound 0.00316 µM) was 95.1%, the viability, T/C (second compound 0.003 µM, first compound 0.01 µM) was 85.8% and the viability, T/C [5] was 72.5%. For the same compound, the viability, T/C [6] was 71%, the viability, T/C [7] was 54.1% and the viability, T/C [8] was 47.6%. It also gave a viability, T/C (second compound 0.00949 µM, first compound 0.00316 µM) of 79.8%, a viability, T/C (second compound 0.00949 µM, first compound 0.01 µM) of 64.1% and a viability, T/C [9] of 59.2%. For the same compound, the viability, T/C [10] was 47.7%, the viability, T/C [11] was 38.6% and the viability, T/C [12] was 33.2%. For the same compound, the viability, T/C (second compound 0.03 µM, first compound 0.00316 µM) was 49.8%, the viability, T/C (second compound 0.03 µM, first compound 0.01 µM) was 51.8% and the viability, T/C [13] was 49.7%. The viability, T/C [14] was 27.2%, the viability, T/C [15] was 24.4% and the viability, T/C [16] was 25.9%. For the same compound, the viability, T/C (second compound 0.0949 µM, first compound 0.00316 µM) was 18.8%, the viability, T/C (second compound 0.0949 µM, first compound 0.01 µM) was 18.5% and the viability, T/C [17] was 17.3%. For the same compound, the viability, T/C [18] was 14.1%, the viability, T/C [19] was 18.4% and the viability, T/C [20] was 22.8%. It also gave a viability, T/C (second compound 0.3 µM, first compound 0.00316 µM) of 10.8%, a viability, T/C (second compound 0.3 µM, first compound 0.01 µM) of 13.6% and a viability, T/C [21] of 11.3%. It also gave a viability, T/C [22] of 12.7%, a viability, T/C [23] of 16.3% and a viability, T/C [24] of 23.1%.
